Laboratory results taken from ChEMBL document CHEMBL5244278, “Bioisosteres of the Phenyl Ring: Recent Strategic Applications in Lead Optimization and Drug Design” (J Med Chem, 2021).
≈ marks a conversion by molar mass, not a printed value.

Tests used:
[1] = Lipophilicity, logD of the compound at pH 7.4; assay type: physicochemical; conditions: buffer
MIA PaCa-2 = assay: Antiproliferative activity against human MIA PaCa-2 cells assessed as cell growth inhibition at 30 uM relative to control; assay type: functional
[2] = Aqueous solubility of compound at pH 7.4; assay type: physicochemical
[3] = Half life in rat hepatocytes; assay type: ADME, cell-based, Hepatocyte
SU-DHL10 = assay: Antiproliferative activity against human SU-DHL-10 cells assessed as cell growth inhibition at 30 uM relative to control; assay type: functional
MDA-MB-231 = assay: Antiproliferative activity against human MDA-MB-231 cells assessed as cell growth inhibition at 30 uM relative to control; assay type: functional
[4] = molecular target: Tyrosine-protein kinase ABL1 (Homo sapiens, UniProt P00519); assay: Inhibition of ABL1 (unknown origin)
physchem = conditions: buffer, pH 7.4
[5] = Dissociation constant, pKa of the compound; assay type: physicochemical
[6] = Inhibition of MAPK (unknown origin); design: species or system Homo sapiens
Hepatitis C virus [7] = assay: microbe, parasite or virus in culture; conditions: GT1b-genotype
[8] = Half life in human plasma; assay type: ADME, cell-free
[9] = Inhibition of human rhinovirus 3C protease; design: species or system Human rhinovirus sp.
Human rhinovirus sp. = assay: Inhibition of human rhinovirus 3C protease assessed as kobs/[I]
in vitro [10] = conditions: human, Caco-2
in vitro [11] = conditions: human, liver microsomes
[12] = Aqueous solubility of compound; assay type: physicochemical
[13] = Solubility of the compound; assay type: physicochemical
[14] = Prodrug conversion in rat plasma assessed as formation of Isavuconazole from intermediate by measuring half life; assay type: ADME, cell-free
[15] = Prodrug conversion in rat plasma assessed as esterase mediated intermediate formation by measuring half life; assay type: ADME, cell-free
Trypanosoma cruzi = assay: Antitrypanosomal activity against Trypanosoma cruzi trypomastigotes infected in mouse 3T3 cells assessed as reduction in parasite growth; assay type: functional, organism-based; conditions: NIH3T3
[16] = Inhibition of LFA-1/ICAM-1 (unknown origin) interaction; design: species or system Homo sapiens
[17] = molecular target: Beta-2 adrenergic receptor (Bos taurus, UniProt Q28044); assay: Antagonist activity at bovine lung membrane adrenergic beta-2 receptor; assay type: cell membranes
[18] = molecular target: Beta-1 adrenergic receptor (Rattus norvegicus, UniProt P18090)
[19] = Metabolic stability in human liver microsomes assessed as parent compound remaining; assay type: ADME, Microsome
Influenza A virus = assay: Antiviral activity against Influenza A virus A/PR/8/34 (PR8) strain infected in MDCK cells assessed as reduction in viral infection incubated for 72 hrs by crystal violet staining based assay; assay type: functional, organism-based
hERG (KCNH2) = hERG (KCNH2) (Homo sapiens, UniProt Q12809); assay: Inhibition of hERG channel; assay type: toxicity; conditions: human
[20] = Clearance in rat liver microsomes; assay type: ADME, Microsome
[21] = Lipophilicity, logD of the compound in 1-octanol and phosphate buffer by tandem mass spectrometer analysis; assay type: physicochemical; conditions: 1-octanol/phosphate buffer
Cytochrome P450 3A4 = Cytochrome P450 3A4 (Homo sapiens, UniProt P08684); assay: Inhibition of CYP3A4 (unknown origin); assay type: ADME
[22] = Solubility of compound at pH 6.8 by RapidFire mass spectrometry; assay type: physicochemical; conditions: buffer
[23] = Solubility of the compound in FaSSIF at pH 6.8 by RapidFire mass spectrometry; assay type: ADME; conditions: simulated gi fluid
Hepatitis C virus [24] = assay: microbe, parasite or virus in culture; conditions: GT1a-genotype

Chain of Tyrosine-protein kinase ABL1 (P00519 whole entry): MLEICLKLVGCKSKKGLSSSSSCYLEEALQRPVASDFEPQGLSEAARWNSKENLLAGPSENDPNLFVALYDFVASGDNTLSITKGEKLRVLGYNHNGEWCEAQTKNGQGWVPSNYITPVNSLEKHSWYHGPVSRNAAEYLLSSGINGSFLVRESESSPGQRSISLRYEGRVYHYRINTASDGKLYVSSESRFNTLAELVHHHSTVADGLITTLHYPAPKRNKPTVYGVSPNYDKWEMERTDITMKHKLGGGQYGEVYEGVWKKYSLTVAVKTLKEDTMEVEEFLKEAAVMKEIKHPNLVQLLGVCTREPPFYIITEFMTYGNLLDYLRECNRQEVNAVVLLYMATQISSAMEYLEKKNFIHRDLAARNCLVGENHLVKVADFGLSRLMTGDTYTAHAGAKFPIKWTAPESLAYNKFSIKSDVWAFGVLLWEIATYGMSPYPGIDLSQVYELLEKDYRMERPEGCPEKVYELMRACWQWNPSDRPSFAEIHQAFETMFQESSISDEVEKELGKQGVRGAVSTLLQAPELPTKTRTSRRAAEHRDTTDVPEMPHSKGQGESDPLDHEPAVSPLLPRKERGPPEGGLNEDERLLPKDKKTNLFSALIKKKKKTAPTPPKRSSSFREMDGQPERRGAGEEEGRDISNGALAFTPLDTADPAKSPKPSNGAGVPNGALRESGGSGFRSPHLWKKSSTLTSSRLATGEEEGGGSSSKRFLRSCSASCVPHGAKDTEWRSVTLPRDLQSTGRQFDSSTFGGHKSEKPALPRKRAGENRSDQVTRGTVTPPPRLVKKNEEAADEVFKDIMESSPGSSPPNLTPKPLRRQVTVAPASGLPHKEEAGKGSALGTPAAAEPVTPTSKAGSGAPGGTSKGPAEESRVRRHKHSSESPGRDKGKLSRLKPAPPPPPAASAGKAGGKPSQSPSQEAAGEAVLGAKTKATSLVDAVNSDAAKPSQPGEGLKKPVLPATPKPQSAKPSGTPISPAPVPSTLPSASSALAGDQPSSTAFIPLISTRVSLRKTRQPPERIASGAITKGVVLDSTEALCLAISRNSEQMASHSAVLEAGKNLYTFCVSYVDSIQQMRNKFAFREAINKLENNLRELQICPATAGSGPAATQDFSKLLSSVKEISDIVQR
Chain of hERG (KCNH2) (Q12809 whole entry): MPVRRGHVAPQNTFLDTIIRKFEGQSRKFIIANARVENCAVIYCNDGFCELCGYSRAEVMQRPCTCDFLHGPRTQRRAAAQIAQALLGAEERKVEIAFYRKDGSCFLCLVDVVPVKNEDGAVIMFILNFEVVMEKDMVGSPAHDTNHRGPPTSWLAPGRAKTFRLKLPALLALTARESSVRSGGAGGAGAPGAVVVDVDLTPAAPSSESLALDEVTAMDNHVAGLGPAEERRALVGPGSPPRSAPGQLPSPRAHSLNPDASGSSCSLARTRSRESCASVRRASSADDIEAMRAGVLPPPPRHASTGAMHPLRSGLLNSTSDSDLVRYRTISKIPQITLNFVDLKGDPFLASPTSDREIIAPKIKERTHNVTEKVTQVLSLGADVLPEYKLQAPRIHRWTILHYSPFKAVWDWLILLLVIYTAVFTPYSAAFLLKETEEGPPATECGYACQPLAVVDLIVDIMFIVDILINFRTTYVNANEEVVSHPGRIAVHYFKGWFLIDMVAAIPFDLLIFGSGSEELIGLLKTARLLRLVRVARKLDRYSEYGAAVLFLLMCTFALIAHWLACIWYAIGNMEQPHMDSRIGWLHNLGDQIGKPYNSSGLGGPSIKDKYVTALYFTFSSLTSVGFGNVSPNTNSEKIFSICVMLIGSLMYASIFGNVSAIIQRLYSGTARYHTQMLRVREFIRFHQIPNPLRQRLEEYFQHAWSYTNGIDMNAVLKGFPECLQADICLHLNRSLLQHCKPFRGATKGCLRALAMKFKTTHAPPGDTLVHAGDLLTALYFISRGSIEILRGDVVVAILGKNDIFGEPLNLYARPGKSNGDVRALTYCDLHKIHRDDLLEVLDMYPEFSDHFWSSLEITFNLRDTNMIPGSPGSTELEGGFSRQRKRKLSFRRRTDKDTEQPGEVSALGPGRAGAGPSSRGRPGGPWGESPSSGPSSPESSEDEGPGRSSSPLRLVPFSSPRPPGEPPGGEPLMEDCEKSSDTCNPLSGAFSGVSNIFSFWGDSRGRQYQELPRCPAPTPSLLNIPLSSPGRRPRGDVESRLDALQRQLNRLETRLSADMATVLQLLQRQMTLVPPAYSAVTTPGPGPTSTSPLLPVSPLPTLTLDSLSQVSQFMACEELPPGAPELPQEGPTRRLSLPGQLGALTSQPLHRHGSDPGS
Chain of Cytochrome P450 3A4 (P08684 whole entry): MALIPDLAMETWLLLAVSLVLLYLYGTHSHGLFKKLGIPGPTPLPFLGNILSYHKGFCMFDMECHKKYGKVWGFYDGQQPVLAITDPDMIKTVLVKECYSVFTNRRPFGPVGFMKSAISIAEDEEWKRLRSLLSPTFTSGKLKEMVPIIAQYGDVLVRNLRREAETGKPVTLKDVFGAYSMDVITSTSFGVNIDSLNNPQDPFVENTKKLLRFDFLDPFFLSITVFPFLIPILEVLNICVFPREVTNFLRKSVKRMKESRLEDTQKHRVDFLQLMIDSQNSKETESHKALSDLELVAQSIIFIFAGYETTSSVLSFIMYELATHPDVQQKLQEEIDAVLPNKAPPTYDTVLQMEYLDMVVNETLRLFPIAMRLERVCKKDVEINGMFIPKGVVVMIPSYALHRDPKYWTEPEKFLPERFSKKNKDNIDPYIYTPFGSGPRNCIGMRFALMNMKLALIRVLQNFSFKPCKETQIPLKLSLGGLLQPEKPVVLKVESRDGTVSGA
Chain of Beta-2 adrenergic receptor (Q28044 whole entry): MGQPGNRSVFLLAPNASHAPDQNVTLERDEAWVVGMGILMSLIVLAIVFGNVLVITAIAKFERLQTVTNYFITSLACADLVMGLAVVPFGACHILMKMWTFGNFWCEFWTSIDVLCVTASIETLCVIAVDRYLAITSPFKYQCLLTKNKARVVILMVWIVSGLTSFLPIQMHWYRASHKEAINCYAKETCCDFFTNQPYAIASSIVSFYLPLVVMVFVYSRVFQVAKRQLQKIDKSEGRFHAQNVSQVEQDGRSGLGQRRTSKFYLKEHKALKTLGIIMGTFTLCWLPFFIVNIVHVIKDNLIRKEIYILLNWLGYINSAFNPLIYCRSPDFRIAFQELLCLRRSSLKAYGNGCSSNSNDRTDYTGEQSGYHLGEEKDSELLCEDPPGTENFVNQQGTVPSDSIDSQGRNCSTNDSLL
Chain of Beta-1 adrenergic receptor (P18090 whole entry): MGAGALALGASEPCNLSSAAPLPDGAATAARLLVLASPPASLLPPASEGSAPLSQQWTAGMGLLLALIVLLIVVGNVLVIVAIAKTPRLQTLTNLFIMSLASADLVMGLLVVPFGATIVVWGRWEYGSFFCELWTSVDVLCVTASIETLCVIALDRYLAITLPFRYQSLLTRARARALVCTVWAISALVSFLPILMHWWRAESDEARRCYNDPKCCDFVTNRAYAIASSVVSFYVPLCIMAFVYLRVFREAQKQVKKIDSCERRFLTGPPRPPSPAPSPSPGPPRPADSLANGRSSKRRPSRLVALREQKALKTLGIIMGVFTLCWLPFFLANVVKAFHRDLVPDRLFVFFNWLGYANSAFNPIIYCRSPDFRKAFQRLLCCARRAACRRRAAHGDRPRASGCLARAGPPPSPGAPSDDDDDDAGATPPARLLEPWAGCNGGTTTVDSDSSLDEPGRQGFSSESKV

SMILES: Oc1cc(O)cc(/C=C/C23CC(O)(C2)C3)c1
- logD [1]: 1.9
- inhibition at 30 µM (MIA PaCa-2): 30%
- solubility [2]: 619 µg/mL (≈ 2840 µM)
- half-life [3]: 24 min
- inhibition at 30 µM (SU-DHL10): 41%
- inhibition at 30 µM (MDA-MB-231): 22%

SMILES: Cc1ccc(NC(=O)CCCCN2CCN(C)CC2)cc1Nc1nccc(-c2cccnc2)n1
- IC50 [4]: > 1000 nM
- solubility (physchem): 356 µM

SMILES: Cc1ccc(NC(=O)C23CC(CN4CCN(C)CC4)(C2)C3)cc1Nc1nccc(-c2cccnc2)n1
- IC50 [4]: > 1000 nM
- solubility (physchem): 2680 µM

SMILES: NC12CC(C1)C2
- pKa [5]: 11

SMILES: COCCn1c(SC)nc(-c2ccc(F)cc2)c1-c1cccc(NC(=O)CCc2cccc(OC)c2)c1
- IC50 [6]: 93 nM
- solubility (physchem): 0.275 µg/mL

SMILES: COC(=O)N[C@@H](C(=O)N1CCC[C@@H]1c1ncc(-c2cn3cc(-c4cnc([C@H]5CCCN5C(=O)[C@H](NC(=O)OC)C(C)C)[nH]4)sc3n2)[nH]1)C(C)C
- EC50 (Hepatitis C virus [7]): < 1 nM

SMILES: CC(C)(C)c1cccc(C(=O)O)c1
- solubility (physchem): 8080 µg/mL

SMILES: C#CC[C@@H](C(=O)N[C@H](/C=C/C(=O)OCC)C[C@@H]1CCNC1=O)n1cccc(NC(=O)c2cc(C)on2)c1=O [IMOCITRELVIR]
- half-life [8]: 396 min
- EC50 [9]: 58 nM
- Ratio (Human rhinovirus sp.): 223000 M/s
- Papp A→B (in vitro [10]): 6 ×10⁻⁶ cm/s
- remaining at 0.5 h (in vitro [11]): 60%
- solubility [12]: 377 µg/mL (≈ 720 µM)

SMILES: Cc1ccc(NC(=O)[C@@H]2CC[C@H](CN3CCN(C)CC3)C2)cc1Nc1nccc(-c2cccnc2)n1
- IC50 [4]: > 1000 nM
- solubility (physchem): 885 µM

SMILES: O=C(C1[C@@H]2CC[C@@]1(c1ccccc1)C2)N1CCCCC1 (stereo partly drawn)
- logD [1]: 3.7
- solubility (physchem): 492 µM

SMILES: CC(=O)Nc1nc2c(Oc3cc(N4CCN(CC(F)(F)F)CC4)ncn3)cccc2s1
- solubility [13]: > 200 µg/mL

SMILES: COCCn1c(SC)nc(-c2ccc(F)cc2)c1-c1cccc(NC(=O)CCc2ccc(OC)cc2)c1
- IC50 [6]: 48 nM
- solubility (physchem): 0.0473 µg/mL

SMILES: CNCC(=O)OCc1cccnc1N(C)C(=O)OC(C)[n+]1cnn(C[C@](O)(c2cc(F)ccc2F)[C@H](C)c2nc(-c3ccc(C#N)cc3)cs2)c1 (stereo partly drawn)
- t1/2 [14]: < 1 min
- t1/2 [15]: < 1 min
- solubility [13]: > 100000 µg/mL

SMILES: O=C(Cn1ccnc1[N+](=O)[O-])NCC1=C/C=C\C=C/C=C\1
- EC50 (Trypanosoma cruzi): 2300 nM

SMILES: CC(C)c1ccccc1Sc1ccc(C2CC2C(=O)NCCCN2CCCC2=O)c(Cl)c1Cl (racemic)
- IC50 [16]: 7 nM

SMILES: CC(=O)c1ccccc1C(C)(C)C
- solubility (physchem): 12100 µg/mL

SMILES: CC(C)NCC(O)c1ccc(Cl)c(Cl)c1 (stereo not drawn) [DICHLOROISOPROTERENOL]
- IC50 [17]: 977 nM
- IC50 [18]: 115 nM

SMILES: Cc1ccc(NC(=O)CCCCCN2CCN(C)CC2)cc1Nc1nccc(-c2cccnc2)n1
- IC50 [4]: > 1000 nM

SMILES: CCOC(=O)/C=C/[C@H](C[C@@H]1CCNC1=O)NC(=O)[C@H](Cc1ccc(F)c(F)c1)n1cccc(NC(=O)c2cc(C)on2)c1=O
- EC50 [9]: 11 nM
- Ratio (Human rhinovirus sp.): 1.8e+06 M/s
- Papp A→B (in vitro [10]): 35 ×10⁻⁶ cm/s
- remaining at 0.5 h (in vitro [11]): 19%
- solubility [12]: 25 µg/mL (≈ 40.9 µM)

SMILES: CN1CCN(c2ccc(Nc3cc(C4CC4)[nH]n3)cc2)CC1
- Stability [19]: 92%

SMILES: O=C(O)/C(O)=C/C(=O)C1CCCCC1
- IC50 (Influenza A virus): 29400 nM

SMILES: O=C(Cc1ccc(B2C=CC=CN2)cc1)Nc1cc(C2CC2)[nH]n1
- IC50 (hERG (KCNH2)): > 30000 nM
- CLhep predicted [20]: 48 mL/min/kg
- logD [21]: 3.9
- IC50 (Cytochrome P450 3A4): > 20000 nM
- solubility [22]: 0.013 µM (≈ 4.14 ng/mL)
- solubility [23]: 0.03 µM (≈ 9.55 ng/mL)

SMILES: CN1CCN(c2ccc(Nc3cc(C4CC4)[nH]n3)nn2)CC1
- Stability [19]: 81%

SMILES: Cc1ccc(NC(=O)[C@H]2C[C@@H](CN3CCN(C)CC3)C2)cc1Nc1nccc(-c2cccnc2)n1
- IC50 [4]: > 1000 nM

SMILES: COC(=O)N[C@@H](C(=O)N1CCC[C@@H]1c1ncc(-c2ccc(-n3ccc4c(-c5cnc([C@H]6CCCN6C(=O)[C@H](NC(=O)OC)C(C)C)[nH]5)csc43)c(Cl)c2)[nH]1)C(C)C
- EC50 (Hepatitis C virus [7]): < 1 nM

SMILES: CC(=O)N1CCN(c2nc(-c3ccc(Sc4ccccc4C(C)C)c(C(F)(F)F)c3)co2)CC1
- IC50 [16]: 2500 nM

SMILES: CN1CCN(c2ccc(Nc3cc(C4CC4)[nH]n3)nc2)CC1
- Stability [19]: 73%

SMILES: CC(=O)N1CCN(C(=O)/C=C/c2ccc(Sc3ccccc3C(C)C)c(C(F)(F)F)c2)CC1
- IC50 [16]: 60 nM

SMILES: COC(=O)N[C@@H](C(=O)N1CCC[C@@H]1c1ncc(-c2cc3sc(-c4cnc([C@H]5CCCN5C(=O)[C@H](NC(=O)OC)C(C)C)[nH]4)cc3s2)[nH]1)C(C)C
- EC50 (Hepatitis C virus [24]): 10 nM
- EC50 (Hepatitis C virus [7]): < 1 nM
